ChEMBL document CHEMBL1155095, “Synthesis and cytotoxicity of aurilide analogs” (Bioorg Med Chem Lett, 2008)
≈ marks a conversion by molar mass, not a printed value.

System: HeLa
Assay: Cytotoxicity against human HeLa S3 cells
Type: functional, cell-based

| Structure (SMILES) | IC50 |
| --- | --- |
| CC/C=C(\C)[C@H]1OC(=O)[C@H](C)N(C)C(=O)[C@@H](C(C)C)NC(=O)CN(C)C(=O)[C@@H](CC(C)C)N(C)C(=O)[C@H](C(C)C)NC(=O)[C@@H]([C@@H](C)CC)OC(=O)/C(C)=C/C[C@H](O)[C@@H]1C | > 4 µg/mL |
| CC/C=C(\C)[C@H]1OC(=O)[C@H](C)N(C)C(=O)[C@H](C(C)C)NC(=O)CN(C)C(=O)[C@@H](CC(C)C)N(C)C(=O)[C@H](CCCCNC(=O)OC(C)(C)C)NC(=O)[C@@H]([C@@H](C)CC)OC(=O)/C(C)=C/C[C@H](O)[C@@H]1C | 0.032 µg/mL (≈ 0.0332 µM) |
| CC/C=C(\C)[C@H]1OC(=O)[C@H](C)N(C)C(=O)[C@H](C(C)C)NC(=O)CN(C)C(=O)[C@@H](CC(C)C)N(C)C(=O)[C@H](C(C)C)NC(=O)[C@@H]([C@@H](C)CC)OC(=O)/C(C)=C/C[C@H](OC(=O)CCCCCNC(=O)OCC2c3ccccc3-c3ccccc32)[C@@H]1C | 0.42 µg/mL (≈ 0.359 µM) |
| CC/C=C(\C)[C@H]1OC(=O)[C@H](C)N(C)C(=O)[C@H](CCCCNC(=O)OC(C)(C)C)NC(=O)CN(C)C(=O)[C@@H](CC(C)C)N(C)C(=O)[C@H](C(C)C)NC(=O)[C@@H]([C@@H](C)CC)OC(=O)/C(C)=C/C[C@H](O)[C@@H]1C | 0.26 µg/mL (≈ 0.27 µM) |
| CC/C=C(\C)[C@H]1OC(=O)[C@H](CCCCNC(=O)OC(C)(C)C)N(C)C(=O)[C@H](C(C)C)NC(=O)CN(C)C(=O)[C@@H](CC(C)C)N(C)C(=O)[C@H](C(C)C)NC(=O)[C@@H]([C@@H](C)CC)OC(=O)/C(C)=C/C[C@H](O)[C@@H]1C | 0.02 µg/mL (≈ 0.0202 µM) |
| CC/C=C(\C)[C@H]1OC(=O)[C@H](C)N(C)C(=O)[C@H](C(C)C)NC(=O)CN(C)C(=O)[C@@H](CC(C)C)N(C)C(=O)[C@H](C(C)C)NC(=O)[C@@H]([C@@H](C)CC)OC(=O)/C(C)=C/C[C@H](OC(=O)CCCCCNC(=O)CCC(=O)O)[C@@H]1C | 0.14 µg/mL (≈ 0.134 µM) |
| CC/C=C(\C)[C@H]1OC(=O)[C@H](C)N(C)C(=O)[C@@H](C(C)C)NC(=O)CN(C)C(=O)[C@@H](CC(C)C)N(C)C(=O)[C@H](C(C)C)NC(=O)[C@@H]([C@@H](C)CC)OC(=O)/C(C)=C/C[C@H](OC(=O)CCCCCNC(=O)CCC(=O)O)[C@@H]1C | > 10 µg/mL |
| CC/C=C(\C)[C@H]1OC(=O)[C@H](C)N(C)C(=O)[C@H](C(C)C)NC(=O)CN(C)C(=O)[C@@H](CC(C)C)N(C)C(=O)[C@H](C(C)C)NC(=O)[C@@H]([C@@H](C)CC)OC(=O)/C(C)=C/C[C@H](O)[C@@H]1C [AURILIDE] | 0.0024 µg/mL (≈ 0.00288 µM) |
| CC/C=C(\C)[C@H]1OC(=O)[C@H](C)N(C)C(=O)[C@H](C(C)C)NC(=O)CN(C)C(=O)[C@@H](CC(C)C)N(C)C(=O)[C@H](C(C)C)NC(=O)[C@@H]([C@@H](C)CC)OC(=O)/C(C)=C/CC[C@@H]1C [DEOXYAURILIDE] | 0.017 µg/mL (≈ 0.0208 µM) |
